According to article PMC4774911, “Biochemical Screening of Five Protein Kinases from Plasmodium falciparum against 14,000 Cell-Active Compounds” (PLoS ONE, 2016):
pIC50: −log10 of the molar value. “And” between values parts separate entries of the source, which are not always exact repeats. Equal entries are not always repeated.

Experiments:
Test in all cases: biochemical
ITK = molecular target: T1, ITK (Homo sapiens, UniProt Q08881)
T1 sequence (Q08881 1-620): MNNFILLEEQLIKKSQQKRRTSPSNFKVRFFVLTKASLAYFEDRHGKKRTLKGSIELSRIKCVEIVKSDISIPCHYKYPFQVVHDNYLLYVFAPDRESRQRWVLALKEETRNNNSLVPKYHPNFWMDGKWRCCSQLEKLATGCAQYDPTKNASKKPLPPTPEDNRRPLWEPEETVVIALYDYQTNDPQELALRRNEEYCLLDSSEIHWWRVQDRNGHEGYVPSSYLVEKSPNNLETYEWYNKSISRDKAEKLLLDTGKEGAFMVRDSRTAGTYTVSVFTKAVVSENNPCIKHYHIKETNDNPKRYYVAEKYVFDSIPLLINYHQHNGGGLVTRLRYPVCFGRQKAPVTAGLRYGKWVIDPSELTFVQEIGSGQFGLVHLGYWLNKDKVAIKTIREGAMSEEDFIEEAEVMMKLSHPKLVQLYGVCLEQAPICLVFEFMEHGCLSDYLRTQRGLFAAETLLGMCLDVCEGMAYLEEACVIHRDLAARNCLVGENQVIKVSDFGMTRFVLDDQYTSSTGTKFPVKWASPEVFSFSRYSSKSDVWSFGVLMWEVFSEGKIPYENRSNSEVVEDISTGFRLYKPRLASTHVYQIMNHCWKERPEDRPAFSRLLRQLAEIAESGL

PRKD3 = molecular target: T2, PRKD3 (Homo sapiens, UniProt O94806)
T2 sequence (O94806 1-890): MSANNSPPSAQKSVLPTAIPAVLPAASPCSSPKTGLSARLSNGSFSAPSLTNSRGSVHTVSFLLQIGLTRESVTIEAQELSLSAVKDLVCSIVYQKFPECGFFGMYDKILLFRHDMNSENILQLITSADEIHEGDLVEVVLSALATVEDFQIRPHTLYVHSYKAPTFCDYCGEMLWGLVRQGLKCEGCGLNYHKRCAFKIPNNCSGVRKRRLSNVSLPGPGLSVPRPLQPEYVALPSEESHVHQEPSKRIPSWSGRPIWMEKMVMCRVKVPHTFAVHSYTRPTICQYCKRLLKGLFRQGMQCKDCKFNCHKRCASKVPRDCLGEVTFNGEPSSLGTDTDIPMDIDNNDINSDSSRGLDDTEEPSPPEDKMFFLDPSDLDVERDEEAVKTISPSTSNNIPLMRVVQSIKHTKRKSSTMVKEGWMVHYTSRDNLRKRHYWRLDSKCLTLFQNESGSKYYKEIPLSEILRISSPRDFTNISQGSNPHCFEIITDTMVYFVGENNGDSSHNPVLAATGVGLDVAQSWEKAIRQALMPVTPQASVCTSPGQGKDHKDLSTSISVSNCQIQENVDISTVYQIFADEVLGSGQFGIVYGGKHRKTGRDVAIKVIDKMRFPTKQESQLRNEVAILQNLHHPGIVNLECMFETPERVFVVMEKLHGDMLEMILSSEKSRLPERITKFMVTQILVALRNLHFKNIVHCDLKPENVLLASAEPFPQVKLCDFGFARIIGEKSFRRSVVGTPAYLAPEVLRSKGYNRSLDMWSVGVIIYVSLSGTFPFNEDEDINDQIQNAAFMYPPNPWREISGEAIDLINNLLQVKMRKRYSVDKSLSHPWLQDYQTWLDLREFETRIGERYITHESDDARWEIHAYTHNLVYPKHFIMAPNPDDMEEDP

IKBKB = molecular target: T3, IKBKB (Homo sapiens, UniProt O14920)
T3 sequence (O14920 1-756): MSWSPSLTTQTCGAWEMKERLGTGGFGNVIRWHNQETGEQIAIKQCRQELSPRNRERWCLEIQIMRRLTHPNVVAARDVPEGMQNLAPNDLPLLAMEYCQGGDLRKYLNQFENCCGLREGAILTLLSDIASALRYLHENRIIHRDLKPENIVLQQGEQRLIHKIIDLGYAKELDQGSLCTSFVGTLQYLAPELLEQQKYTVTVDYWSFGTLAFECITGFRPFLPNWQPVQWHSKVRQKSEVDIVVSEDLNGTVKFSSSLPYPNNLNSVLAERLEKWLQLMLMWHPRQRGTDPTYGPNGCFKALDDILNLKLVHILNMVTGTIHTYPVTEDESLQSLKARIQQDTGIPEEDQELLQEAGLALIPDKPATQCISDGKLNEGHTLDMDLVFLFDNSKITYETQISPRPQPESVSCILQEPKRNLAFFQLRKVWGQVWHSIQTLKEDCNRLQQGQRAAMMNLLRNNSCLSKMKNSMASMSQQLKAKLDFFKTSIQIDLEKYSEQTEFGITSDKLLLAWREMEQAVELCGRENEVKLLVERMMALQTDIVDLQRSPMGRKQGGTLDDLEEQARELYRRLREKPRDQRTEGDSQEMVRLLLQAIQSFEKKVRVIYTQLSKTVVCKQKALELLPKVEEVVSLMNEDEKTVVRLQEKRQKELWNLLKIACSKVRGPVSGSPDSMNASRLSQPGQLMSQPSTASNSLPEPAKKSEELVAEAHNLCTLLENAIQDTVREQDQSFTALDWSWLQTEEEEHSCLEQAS

ZAK = ZAK (Homo sapiens, UniProt Q9NYL2)
Chain of ZAK (Q9NYL2 whole entry): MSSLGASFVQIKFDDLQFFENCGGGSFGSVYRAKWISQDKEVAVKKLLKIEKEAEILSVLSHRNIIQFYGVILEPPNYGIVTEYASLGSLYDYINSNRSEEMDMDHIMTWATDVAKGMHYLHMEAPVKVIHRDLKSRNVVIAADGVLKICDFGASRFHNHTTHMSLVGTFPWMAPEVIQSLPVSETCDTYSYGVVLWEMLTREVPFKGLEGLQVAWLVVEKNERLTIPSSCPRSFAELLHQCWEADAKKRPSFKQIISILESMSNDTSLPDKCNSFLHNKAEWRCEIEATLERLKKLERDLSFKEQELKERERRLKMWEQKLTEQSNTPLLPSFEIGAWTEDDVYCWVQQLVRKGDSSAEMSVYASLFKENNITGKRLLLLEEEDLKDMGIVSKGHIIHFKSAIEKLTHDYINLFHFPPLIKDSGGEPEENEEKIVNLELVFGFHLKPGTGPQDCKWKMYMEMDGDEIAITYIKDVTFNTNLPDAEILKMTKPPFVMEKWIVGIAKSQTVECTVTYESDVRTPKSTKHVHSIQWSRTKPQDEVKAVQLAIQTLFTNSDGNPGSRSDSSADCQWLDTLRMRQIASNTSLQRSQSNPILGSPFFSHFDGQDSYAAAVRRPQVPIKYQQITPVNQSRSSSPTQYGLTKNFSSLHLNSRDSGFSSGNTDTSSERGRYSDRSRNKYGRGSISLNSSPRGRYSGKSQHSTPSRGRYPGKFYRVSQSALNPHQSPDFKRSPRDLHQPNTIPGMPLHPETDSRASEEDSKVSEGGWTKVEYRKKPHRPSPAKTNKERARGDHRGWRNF

CSNK1E = CSNK1E (Homo sapiens, UniProt P49674)
Chain of CSNK1E (P49674 whole entry): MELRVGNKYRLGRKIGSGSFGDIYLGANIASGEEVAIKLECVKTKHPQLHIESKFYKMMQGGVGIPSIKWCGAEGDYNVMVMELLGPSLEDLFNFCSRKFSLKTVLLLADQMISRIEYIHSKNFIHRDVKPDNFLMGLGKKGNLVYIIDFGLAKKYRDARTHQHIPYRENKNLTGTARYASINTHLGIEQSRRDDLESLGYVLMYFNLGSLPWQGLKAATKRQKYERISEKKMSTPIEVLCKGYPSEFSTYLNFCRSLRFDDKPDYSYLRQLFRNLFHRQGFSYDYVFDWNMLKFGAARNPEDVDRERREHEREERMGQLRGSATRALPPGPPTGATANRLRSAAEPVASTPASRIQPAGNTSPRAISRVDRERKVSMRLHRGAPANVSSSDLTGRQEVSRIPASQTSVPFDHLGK

TNIK = TNIK (Homo sapiens, UniProt Q9UKE5)
Chain of TNIK (Q9UKE5 whole entry): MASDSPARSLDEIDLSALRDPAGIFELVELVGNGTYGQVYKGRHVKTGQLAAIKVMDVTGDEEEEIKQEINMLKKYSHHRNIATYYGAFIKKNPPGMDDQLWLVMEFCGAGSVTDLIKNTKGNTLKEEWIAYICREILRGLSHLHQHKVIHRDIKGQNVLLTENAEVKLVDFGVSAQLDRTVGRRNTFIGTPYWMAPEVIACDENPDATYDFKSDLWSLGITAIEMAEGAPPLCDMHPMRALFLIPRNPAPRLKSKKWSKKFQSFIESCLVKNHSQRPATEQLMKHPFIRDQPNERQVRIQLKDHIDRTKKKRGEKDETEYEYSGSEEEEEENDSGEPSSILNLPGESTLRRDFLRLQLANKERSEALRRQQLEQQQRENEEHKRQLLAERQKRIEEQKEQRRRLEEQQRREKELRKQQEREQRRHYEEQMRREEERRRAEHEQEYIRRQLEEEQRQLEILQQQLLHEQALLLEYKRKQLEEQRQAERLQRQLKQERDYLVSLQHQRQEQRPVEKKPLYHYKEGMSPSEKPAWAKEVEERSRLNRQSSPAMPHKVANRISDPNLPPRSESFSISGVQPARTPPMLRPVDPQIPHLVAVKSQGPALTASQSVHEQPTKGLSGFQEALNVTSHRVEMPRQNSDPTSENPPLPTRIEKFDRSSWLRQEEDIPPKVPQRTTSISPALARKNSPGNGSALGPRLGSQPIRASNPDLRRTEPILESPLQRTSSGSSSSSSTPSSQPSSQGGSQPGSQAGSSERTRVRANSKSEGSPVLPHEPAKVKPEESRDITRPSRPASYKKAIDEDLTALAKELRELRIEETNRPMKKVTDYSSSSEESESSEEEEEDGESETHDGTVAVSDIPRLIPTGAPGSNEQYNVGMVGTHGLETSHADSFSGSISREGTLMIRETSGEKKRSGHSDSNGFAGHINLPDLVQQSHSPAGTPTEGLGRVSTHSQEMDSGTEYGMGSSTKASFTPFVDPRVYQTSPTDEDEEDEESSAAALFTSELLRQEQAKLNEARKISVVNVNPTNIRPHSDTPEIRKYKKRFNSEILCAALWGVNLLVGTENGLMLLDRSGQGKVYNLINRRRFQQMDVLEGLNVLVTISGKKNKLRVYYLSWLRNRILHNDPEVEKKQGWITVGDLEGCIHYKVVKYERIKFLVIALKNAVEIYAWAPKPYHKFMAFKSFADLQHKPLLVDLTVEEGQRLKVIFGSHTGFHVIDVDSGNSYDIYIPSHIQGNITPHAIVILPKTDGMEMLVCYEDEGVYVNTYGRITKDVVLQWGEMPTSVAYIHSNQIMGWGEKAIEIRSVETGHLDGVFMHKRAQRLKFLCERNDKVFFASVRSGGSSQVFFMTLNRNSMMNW

PHKG2 = molecular target: T4, PHKG2 (Homo sapiens, UniProt P15735)
T4 sequence (P15735 1-406): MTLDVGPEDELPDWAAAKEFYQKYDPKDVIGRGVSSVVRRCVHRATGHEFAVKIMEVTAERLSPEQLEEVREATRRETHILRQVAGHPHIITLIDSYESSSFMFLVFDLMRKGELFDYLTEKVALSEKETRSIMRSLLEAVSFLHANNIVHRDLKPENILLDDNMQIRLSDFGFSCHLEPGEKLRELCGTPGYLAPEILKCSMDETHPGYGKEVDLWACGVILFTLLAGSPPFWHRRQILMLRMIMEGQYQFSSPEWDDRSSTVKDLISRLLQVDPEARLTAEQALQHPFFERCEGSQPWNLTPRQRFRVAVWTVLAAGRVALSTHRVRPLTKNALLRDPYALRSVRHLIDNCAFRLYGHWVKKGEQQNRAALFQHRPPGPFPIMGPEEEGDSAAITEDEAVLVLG

Row | SMILES | pIC50 (ITK) | pIC50 (PRKD3) | pIC50 (IKBKB) | pIC50 (ZAK) | pIC50 (CSNK1E) | pIC50 (TNIK) | pIC50 (PHKG2)
1 | CN(C)CC(O)COc1ccc(Nc2ncc([N+](=O)[O-])c(Nc3ccccc3O)n2)cc1.O=C(O)C(F)(F)F (stereo not drawn) [TCMDC-141399] | 5.77 | 5.04 and 5.12 | < 4.70 | < 4.70 | < 4.70 | 6.09 | < 4.70
2 | Cl.NCC1(c2nc(-c3ccc(Cl)c(O)c3)c(-c3ccncc3)[nH]2)CCCCC1 [TCMDC-141154] | < 4.70 | 5.06 | < 4.70 | 5.07 and 5.29 | 6.48 | 6.54 | < 4.70
3 | CN1CCN(c2ccc(Nc3ncc(C#N)c(Nc4ccccc4C(N)=O)n3)cc2)CC1.Cl [TCMDC-134116] | 6.85 | 6.43 | < 4.70 | 6.02 | 5.80 and 5.39 | 6.70 and 6.60 | 5.55
